Literature values, collected in publication PMC2615486 (Chemistry & biology, 2008).

Assays:
avidin = settings: ref Green, N.M. 1970
[1] = ref Hyre, D.E., Le Trong, I., et al. 2006

Molecule | dissociation constant for avidin, weaker than that of biotin (avidin) | association rate for biotin [1]
C[C@@H]1NC(=O)N[C@@H]1CCCCCC(=O)O [desthiobiotin] | 10^2–10^4 fold | –
streptavidin: wild-type streptavidin as described in the literature | – | ~ 1 × 10^8 M^−1s^−1
